From patent US20210401833A1 (IMBRIA PHARMACEUTICALS, INC., priority 2020, published 2021)
Converted amounts (≈) assume the structure as drawn. Read-outs that look alike come from different tables or passages of the source. Values belong to the molecule of their own block, whether it stands above or below them.

Experiments:
clinical = details: human, in vivo; for AUC0-t higher after the 8-hour MR formulation than after the 4-hour MR formulation / AUC0-t lower after the 8-hour MR formulation than after the 4-hour MR formulation / Tmax: po
[1] = 28-day dog study (nonclinical toxicology, NOAEL); assay type: in vivo; details: for AUC(0-t): po, 200 mg/kg/day
Procedure: Based on the nonclinical toxicology data, it was considered that subjects in this clinical study were not at unreasonable risk of adverse effects. […] For a 60-kg individual, the NOAEL dose would be 6480 mg. With a 10-fold safety factor applied, this would allow for a maximum recommended starting dose (MRSD) of 648 mg/day. 7,8 The planned starting dose in the current Phase 1 study was 50 mg, equivalent to 0.83 mg/kg/day for a 60-kg subject. This starting dose is less than 10% of the MRSD determined from the dog NOAEL and less than 1% of the dog NOAEL
The relevant animal study was the 28-day dog study where the NOAEL for IMB-1018972 was 200 mg/kg/day.

[2] = human, in vivo, 150 mg
[3] = aqueous solubility of CV-8972; assay type: physicochemical; details: aqueous solution, aqueous buffer
Excerpt: FIG. 2 is graph of the aqueous solubility of CV-8972 as a function of pH generated via dynamic methods due to instability.

[4] = pH stability profile of a 1 mg/mL solution of CV-8972 at 23° C.; assay type: physicochemical; details: for 1st order Kobs / % lost in 25 hrs / Amt. remaining / T5% / T10%: 1 mg/mL, 23° C.
Procedure: The pH stability profile is summarized and shown in Table 2 for a 1 mg/mL solution of CV-8972 at 23° C.
The hydrolysis proceeds via the first step shown in FIG. 1, as Nicotinic acid and CV-8814 are the only decomposition products generated. The optimal pH for solution stability appears to be around pH 5-5.1 for a 1 mg/mL solution with acid-catalyzed hydrolysis increasing at pH values less than 5.0 and base-catalyzed hydrolysis increasing above pH 5.0.

[5] = solution stability (decomposition kinetics) in simulated GI media at 37° C. and 0.2 mg/mL, HPLC; assay type: physicochemical
Procedure: The solution stability of CV-8972 was evaluated in multiple media currently used to simulate dissolution and stability conditions in the various sections of the GI tract. As CV-8972 will be subject to hydrolysis as it is dissolving in the GI tract, it will be important to understand these kinetics in terms of designing instant and controlled-release formulations. HPLC methods were used to perform these assessments.
In summary, there may be some protective effect of the components of the FaSSGF, FaSSIF, and FeSSIF, particularly when compared to stability in 0.1N HCl or bicarbonate or phosphate buffer at pH 6-8. On the positive side, the fastest decomposition rate still has a T1/2 of 1.5 hours which should provide enough residence time for release and absorption in the upper GI tract.

[6] = in vitro CaCo2 permeability; assay type: in vitro ADME; details: human, Caco-2
CaCo2 = assay: in vitro CaCo2 permeability; assay type: in vitro ADME
[7] = Phase 1 first-in-human study, single-dose MR part, safety and tolerability; assay type: in vivo
[8] = Phase 1 first-in-human study, multiple-dose MR part, safety and tolerability; assay type: in vivo
[9] = Phase 1 first-in-human study, overall safety; assay type: in vivo; details: after administration as the MR formulations
Procedure: Safety and tolerability were assessed through AEs, clinical laboratory, vital signs, ECGs, continuous cardiac monitoring (telemetry), and physical examination findings, and any other parameter that was relevant for safety assessment.

[10] = in vitro stability in biological media across species; assay type: in vitro ADME
Excerpt: Additional and extensive in vitro stability work has been carried out across species to evaluate the impact of GI tract, liver tissues, and plasma on half-life as measured by in vitro clearance of CV-8972 in various biological media.

[11] = Phase 1 first-in-human study, combined single and multiple IMB-1018972 dose results (SAD, MAD, FE, MR), plasma and urine PK; details: plasma of subjects that received IMB-1018972

half-life (clinical): 201 to 256 min
Cmax higher under fed conditions relative to fasted conditions (clinical; 200 mg): approximately 42%
AUC0-t higher after the 8-hour MR formulation than after the 4-hour MR formulation (clinical): 6%
AUC0-t lower after the 8-hour MR formulation than after the 4-hour MR formulation (clinical): 26%
Tmax (clinical; 200 mg): 2 h
Cmax lower under fed conditions relative to fasted conditions [2]: approximately 36%
Structure (SMILES): COc1ccc(CN2CCN(CCO)CC2)c(OC)c1OC [CV-8814, 2-[4-[(2,3,4-trimethoxyphenyl)methyl]piperazin-1-yl]ethanol]
AUC(0-t) ([1]; female, dog, in vivo): 653 µg·h/mL
AUC(0-t) ([1]; male, dog, in vivo): 418 µg·h/mL

half-life (clinical): 487 to 561 min
AUC0-t higher after the 8-hour MR formulation than after the 4-hour MR formulation (clinical): 4%
AUC0-t lower after the 8-hour MR formulation than after the 4-hour MR formulation (clinical): 12%
Tmax (clinical; 50 mg): 8 h
Tmax (clinical; 200 mg): 5 h
Structure (SMILES): COc1ccc(CN2CCNCC2)c(OC)c1OC [trimetazidine, reference compound]
AUC(0-t) ([1]; female, dog, in vivo): 13.8 µg·h/mL
AUC(0-t) ([1]; male, dog, in vivo): 15 µg·h/mL

Structure (SMILES): COc1ccc(CN2CCN(CCOC(=O)c3cccnc3)CC2)c(OC)c1OC [CV-8972, 2-[4-[(2,3,4-trimethoxyphenyl)methyl]piperazin-1-yl]ethyl pyridine-3-carboxylate]
solubility ([3]; free base, read-out: saturated base solubility / minimal solubility as the free base): 5000 to 10000 µg/mL (≈ 12 to 24.1 mM)
solubility ([3]; salt, read-out: solubility as the salt): > 100000 µg/mL
optimal pH for solution stability ([4]; 1 mg/mL solution): 5-5.1
1st order Kobs ([4]; pH 2.74, Water): 0.00516 h⁻¹
% lost in 25 hrs ([4]; pH 2.74, Water): 12.1%
Amt. remaining ([4]; pH 2.74, Water): 0.879 mg/mL
T5% ([4]; pH 2.74, Water): 9.9 h
T10% ([4]; pH 2.74, Water): 20.4 h
1st order Kobs ([4]; pH 3.52, 20 mM Phos): 0.00273 h⁻¹
% lost in 25 hrs ([4]; pH 3.52, 20 mM Phos): 6.6%
Amt. remaining ([4]; pH 3.52, 20 mM Phos): 0.934 mg/mL
T5% ([4]; pH 3.52, 20 mM Phos): 18.8 h
T10% ([4]; pH 3.52, 20 mM Phos): 38.6 h
1st order Kobs ([4]; pH 5.05, 20 mM Am. Acetate): 0.00105 h⁻¹
% lost in 25 hrs ([4]; pH 5.05, 20 mM Am. Acetate): 2.6%
Amt. remaining ([4]; pH 5.05, 20 mM Am. Acetate): 0.974 mg/mL
T5% ([4]; pH 5.05, 20 mM Am. Acetate): 48.7 h
T10% ([4]; pH 5.05, 20 mM Am. Acetate): 100.0 h
1st order Kobs ([4]; pH 5.64, 20 mM Phos): 0.00248 h⁻¹
% lost in 25 hrs ([4]; pH 5.64, 20 mM Phos): 6.0%
Amt. remaining ([4]; pH 5.64, 20 mM Phos): 0.94 mg/mL
T5% ([4]; pH 5.64, 20 mM Phos): 20.7 h
T10% ([4]; pH 5.64, 20 mM Phos): 42.6 h
1st order Kobs ([4]; pH 6.5, 20 mM Phos): 0.01119 h⁻¹
% lost in 25 hrs ([4]; pH 6.5, 20 mM Phos): 24.4%
Amt. remaining ([4]; pH 6.5, 20 mM Phos): 0.756 mg/mL
T5% ([4]; pH 6.5, 20 mM Phos): 4.6 h
T10% ([4]; pH 6.5, 20 mM Phos): 9.4 h
1st order Kobs ([4]; pH 6.88, 20 mM Phos): 0.02064 h⁻¹
% lost in 25 hrs ([4]; pH 6.88, 20 mM Phos): 40.3%
Amt. remaining ([4]; pH 6.88, 20 mM Phos): 0.597 mg/mL
T5% ([4]; pH 6.88, 20 mM Phos): 2.5 h
T10% ([4]; pH 6.88, 20 mM Phos): 5.1 h
Est Kobs (first order rate constant for hydrolysis) ([5]; 0.1 M HCl, pH 1.0, no surfactants): 0.221 h⁻¹
Est Kobs (first order rate constant for hydrolysis) ([5]; BiCarb adj (0.1 M HCl neutralized with sodium bicarbonate), pH 6-8.2, no surfactants): 0.456 h⁻¹
Est Kobs (first order rate constant for hydrolysis) ([5]; FaSSGF, pH 1.6): 0.0143 h⁻¹
Est Kobs (first order rate constant for hydrolysis) ([5]; FaSSIF, pH 6.5): 0.05124 h⁻¹
Est Kobs (first order rate constant for hydrolysis) ([5]; FeSSIF, pH 5.8): 0.00696 h⁻¹
half-life at 0.2 mg/mL ([5]; bicarbonate-adjusted medium (BiCarb adj), BiCarb adj, pH 6-8.2 (fastest decomposition rate)): 90 min
Papp [6]: ~29 ×10⁻⁶ cm/s
efflux (CaCo2): little evidence of efflux
TEAEs of flushing [7]: No TEAEs of flushing were reported
difference between fasted and fed administration for the number and incidence of TEAEs [7]: no clear difference
dose or dissolution time dependency of the number and incidence of TEAEs [7]: no apparent dose or dissolution time dependency
number of TEAEs considered not related to the study drug [7]: 30
number of TEAEs considered related to the study drug [7]: 7
number of TEAEs, SOC Gastrointestinal disorders [7]: 5
number of TEAEs, SOC General disorders and administration site conditions [7]: 11
number of TEAEs, SOC Nervous system disorders [7]: 8
number of drug-related TEAEs of ALT increased [7]: 1
number of drug-related TEAEs of headache [7]: 1
number of drug-related TEAEs of pollakiuria [7]: 5
severe TEAEs [7]: No severe TEAEs were reported
subjects n (%) with drug-related pollakiuria [7]: 2 (16.7%)
subjects n (%), SOC Gastrointestinal disorders [7]: 4 (33.3%)
subjects n (%), SOC General disorders and administration site conditions [7]: 7 (58.3%)
subjects n (%), SOC Nervous system disorders [7]: 7 (58.3%)
total number of TEAEs ([7]; all treatments): 37
number of TEAEs considered not related to the study drug [8]: 30
number of TEAEs considered related to the study drug [8]: 10
number of TEAEs, SOC Gastrointestinal disorders [8]: 9
number of TEAEs, SOC General disorders and administration site conditions [8]: 4
number of TEAEs, SOC Musculoskeletal and connective tissue disorders [8]: 4
number of TEAEs, SOC Nervous system disorders [8]: 9
number of TEAEs, SOC Renal and urinary disorders (pollakiuria) [8]: 4
number of drug-related TEAEs of pollakiuria [8]: 4
number of drug-related TEAEs, Nervous system disorders [8]: 2
severity of TEAEs [8]: All TEAEs were of mild severity
subjects n (%) with drug-related Nervous system disorders [8]: 2 (16.7%)
subjects n (%) with drug-related pollakiuria [8]: 4 (33.3%)
subjects n (%), SOC Gastrointestinal disorders [8]: 5 (41.7%)
subjects n (%), SOC General disorders and administration site conditions [8]: 4 (33.3%)
subjects n (%), SOC Musculoskeletal and connective tissue disorders [8]: 4 (33.3%)
subjects n (%), SOC Nervous system disorders [8]: 7 (58.3%)
subjects n (%), SOC Renal and urinary disorders (pollakiuria) [8]: 4 (33.3%)
total number of TEAEs [8]: 40
subjects reporting flushing ([8]; mild severity): 2 (16.7%)
number of TEAEs of flushing ([8]; mild severity, drug-related): 2
NOAEL at 28 days ([1]; dog, in vivo): 108 mg/kg/day
maximum recommended starting dose (MRSD) ([1]; dog, in vivo, 28 days): 648 mg/day
NOAEL dose for a 60-kg individual ([1]; from HED): 6480 mg
NOAEL at 28 days ([1]; in vivo, 28-day dog, oral, read-out: no observed adverse effect level (NOAEL)): 200 mg/kg/day
hemodynamic changes and changes in the QTc-interval [9]: no findings of hemodynamic changes, nor changes in the QTc-interval
stability in GI tract, liver tissues and plasma (in vitro clearance) [10]: relatively unstable in the GI tract
IMB-1018972 in plasma samples [11]: could be measured in only few plasma samples
